Data as given in patent US7834023B2 (Portola Pharmaceuticals, Inc., priority 2006, dated 2010).

molecular target: T1, P2Y12 receptor (Homo sapiens, UniProt Q9H244); assay: platelet ADP receptor binding assay (ARB): inhibition of [3H]2-MeS-ADP binding to platelets; conditions: [3H]2-MeS-ADP binding to apyrase-washed human platelets
T1 construct: endogenous in cells; host or cells: human platelets (outdated from blood banks or fresh), apyrase-washed, whole
Experimental: 1. The Ability of Candidate Molecules to Inhibit the Binding of [^3H]2-MeS-ADP to the […] Receptor on Platelets was Determined Using a Radioligand Binding Assay.
Utilizing this assay the potency of inhibition of such compounds with respect to [^3H]2-MeS-ADP binding to whole platelets is determined. Under the conditions described in II (3) below, the binding of [^3H]2-MeS-ADP is solely due to the interaction of this ligand with the P2Y12 receptor, in that all the specific binding measured in this assay is competable with a P2Y12 antagonist (i.e., the specific binding is reduced to background levels by competition with an excess of P2Y12 antagonist, with no competition of binding when a P2Y1 antagonist is pre-incubated with the platelet preparation). [^3H]2-MeS-ADP binding experiments are routinely performed with outdated human platelets collected by standard procedures at hospital blood banks. Apyrase-washed outdated platelets are prepared as follows (all steps at room temperature, if not indicated otherwise):
Outdated platelet suspensions are diluted with 1 volume of CGS and platelets pelleted by centrifugation at 1900×g for 45 minutes. Platelet pellets are resuspended at 3-6×10^9 platelets/ml in CGS containing 1 U/ml apyrase (grade V, Sigma, St. Louis, Mo.) and incubated for 15 minutes at 37° C. After centrifugation at 730×g for 20 minutes, pellets are resuspended in Hepes-Tyrode's buffer containing 0.1% BSA (Sigma, St. Louis, Mo.) at a concentration of 6.66×10^8 platelets/ml. Binding experiments are performed after >45 minutes resting of the platelets.
Alternatively, binding experiments are performed with fresh human platelets prepared as described in section I (Inhibition of ADP-Mediated Platelet Aggregation in vitro), except that platelets are resuspended in Hepes-Tyrode's buffer containing 0.1% BSA (Sigma, St. Louis, Mo.) at a concentration of 6.66×10^8 platelets/mil. Very similar results are obtained with fresh and outdated platelets.
A platelet ADP receptor binding assay (ARB) using the tritiated potent agonist ligand [^3H]2-MeS-ADP (Jantzen, H. M. et al. (1999) Thromb. Hemost. 81:111-117) has been adapted to the 96-well microtiter format. In an assay volume of 0.2 ml Hepes-Tyrode's buffer with 0.1% BSA and 0.6% DMSO, 1×10^8 apyrase-washed platelets are preincubated in 96-well flat bottom microtiter plates for 5 minutes with serial dilutions of test compounds before addition of 1 nM [^3H]2-MeS-ADP ([^3H]2-methylthioadenosine-5′-diphosphate, ammonium salt; specific activity 20-50 Ci/mmole, obtained by custom synthesis from Amersham Life Science, Inc., Arlington Heights, Ill., or NEN Life Science Products, Boston, Mass.). Total binding is determined in the absence of test compounds. Samples for nonspecific binding may contain 10 μM unlabelled 2-MeS-ADP (RBI, Natick, Mass.). After incubation for 15 minutes at room temperature, unbound radioligand is separated by rapid filtration and two washes with cold (4-8° C.) Binding Wash Buffer (10 mM Hepes pH 7.4, 138 mM NaCl) using a 96-well cell harvester (Minidisc 96, Skatron Instruments, Sterling, Va.) and 8×12 GF/C glassfiber filtermats (Printed Filtermat A, for 1450 Microbeta, Wallac Inc., Gaithersburg, Md.). The platelet-bound radioactivity on the filtermats is determined in a scintillation counter (Microbeta 1450, Wallac Inc., Gaithersburg, Md.). Specific binding is determined by subtraction of non-specific binding from total binding, and specific binding in the presence of test compounds is expressed as % of specific binding in the absence of test compound dilutions. IC50s were derived by non-linear regression analysis.

T1 sequence (Q9H244 whole entry): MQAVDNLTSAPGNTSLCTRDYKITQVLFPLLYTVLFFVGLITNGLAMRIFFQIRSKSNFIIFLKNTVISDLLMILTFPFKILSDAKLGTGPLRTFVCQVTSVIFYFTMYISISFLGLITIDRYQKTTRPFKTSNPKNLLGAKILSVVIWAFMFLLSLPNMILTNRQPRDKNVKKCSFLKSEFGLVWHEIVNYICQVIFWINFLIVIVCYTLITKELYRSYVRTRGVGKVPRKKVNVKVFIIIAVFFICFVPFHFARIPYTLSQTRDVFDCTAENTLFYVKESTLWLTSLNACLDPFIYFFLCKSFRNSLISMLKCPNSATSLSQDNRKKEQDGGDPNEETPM

Row | SMILES | IC50 [nM]
1 | O=C(NC(Cc1cccs1)C(=O)O)c1ccc(-n2c(=O)[nH]c3cc(NCc4ccc(F)cc4)ccc3c2=O)cc1 (stereo not shown) [Compound 3, 2-(4-(7-(4-fluorobenzylamino)-2,4-dioxo-1,2-dihydroquinazolin-3(4H)-yl)benzamido)-3-(thiophen-2-yl)propanoic acid] | 50 to 500
2 | CNc1cc2[nH]c(=O)n(-c3ccc(C(=O)NCc4ccc(Cl)s4)cc3)c(=O)c2cc1F [Compound 4, N-((5-chlorothiophen-2-yl)methyl)-4-(6-fluoro-7-(methylamino)-2,4-dioxo-1,2-dihydroquinazolin-3(4H)-yl)benzamide] | 50 to 500
3 | CNc1cc2[nH]c(=O)n(-c3ccc(C(=O)NC(C(=O)O)c4cccs4)cc3)c(=O)c2cc1F (stereo not shown) [Compound 8, 2-(4-(6-fluoro-7-(methylamino)-2,4-dioxo-1,2-dihydroquinazolin-3(4H)-yl)benzamido)-2-(thiophen-2-yl)acetic acid] | > 500
4 | CNc1cc2[nH]c(=O)n(-c3ccc(C(=O)NC(Cc4cccs4)C(=O)O)cc3)c(=O)c2cc1F (stereo not shown) [Compound 9, 2-(4-(6-fluoro-7-(methylamino)-2,4-dioxo-1,2-dihydroquinazolin-3(4H)-yl)benzamido)-3-(thiophen-2-yl)propanoic acid] | > 500
5 | O=C(NCc1nnn[nH]1)c1ccc(-n2c(=O)[nH]c3cc(NCc4ccc(F)cc4)ccc3c2=O)cc1 [Compound 10, N-((1H-tetrazol-5-yl)methyl)-4-(7-(4-fluorobenzylamino)-2,4-dioxo-1,2-dihydroquinazolin-3(4H)-yl)benzamide] | > 500
6 | CNc1cc2[nH]c(=O)n(-c3ccc(C(=O)NC(c4ccc(Cl)cc4)c4nnn[nH]4)cc3)c(=O)c2cc1F (stereo not shown) [Compound 12, N-((4-chlorophenyl)(1H-tetrazol-5-yl)methyl)-4-(6-fluoro-7-(methylamino)-2,4-dioxo-1,2-dihydroquinazolin-3(4H)-yl)benzamide] | > 500
7 | CNc1cc2[nH]c(=O)n(-c3ccc(C(=O)NC(C(=O)O)c4ccc(Cl)cc4)cc3)c(=O)c2cc1F (stereo not shown) [Compound 14, 2-(4-chlorophenyl)-2-(4-(6-fluoro-7-(methylamino)-2,4-dioxo-1,2-dihydroquinazolin-3(4H)-yl)benzamido)acetic acid] | > 500
8 | CNc1cc2[nH]c(=O)n(-c3ccc(C(=O)NC(C(=O)O)c4cccc(Cl)c4)cc3)c(=O)c2cc1F (stereo not shown) [Compound 15, 2-(3-chlorophenyl)-2-(4-(6-fluoro-7-(methylamino)-2,4-dioxo-1,2-dihydroquinazolin-3(4H)-yl)benzamido)acetic acid] | 50 to 500
9 | CNc1cc2[nH]c(=O)n(-c3ccc(C(=O)NC(C(=O)OC)c4ccc(Cl)s4)cc3)c(=O)c2cc1F (stereo not shown) [Compound 18] | > 500
10 | CNc1ccc2c(=O)n(-c3ccc(C(=O)NC(C(=O)O)c4ccc(Cl)s4)cc3)c(=O)[nH]c2c1 (stereo not shown) [Compound 20, 2-(5-chlorothiophen-2-yl)-2-(4-(7-(methylamino)-2,4-dioxo-1,2-dihydroquinazolin-3(4H)-yl)benzamido)acetic acid] | 50 to 500
11 | CNc1cc2[nH]c(=O)n(-c3ccc(C(=O)NC(c4cccc(C)c4)c4nnn[nH]4)cc3)c(=O)c2cc1F (stereo not shown) [Compound 22] | > 500
12 | CNc1cc2[nH]c(=O)n(-c3ccc(C(=O)NC(c4cccc(OC)c4)c4nnn[nH]4)cc3)c(=O)c2cc1F (stereo not shown) [Compound 23, 4-(6-fluoro-7-(methylamino)-2,4-dioxo-1,2-dihydroquinazolin-3(4H)-yl)-N-((3-methoxyphenyl)(1H-tetrazol-5-yl)methyl)benzamide] | > 500
13 | CNc1cc2[nH]c(=O)n(-c3ccc(C(=O)NC(c4cccc(F)c4)c4nnn[nH]4)cc3)c(=O)c2cc1F (stereo not shown) [Compound 24, 4-(6-fluoro-7-(methylamino)-2,4-dioxo-1,2-dihydroquinazolin-3(4H)-yl)-N-((3-fluorophenyl)(1H-tetrazol-5-yl)methyl)benzamide] | > 500
14 | CNc1cc2[nH]c(=O)n(-c3ccc(C(=O)NC(c4nsc(=O)[nH]4)c4ccc(Cl)s4)cc3)c(=O)c2cc1F (stereo not shown) [Compound 25, N-((5-chlorothiophen-2-yl)(5-oxo-4,5-dihydro-1,2,4-thiadiazol-3-yl)methyl)-4-(6-fluoro-7-(methylamino)-2,4-dioxo-1,2-dihydroquinazolin-3(4H)-yl)benzamide] | 50 to 500
15 | CCOC(=O)C(NC(=O)c1ccc(-n2c(=O)[nH]c3cc(NC)c(F)cc3c2=O)cc1)c1ccc(Cl)s1 (stereo not shown) [Compound 26, ethyl 2-(5-chlorothiophen-2-yl)-2-(4-(6-fluoro-7-(methylamino)-2,4-dioxo-1,2-dihydroquinazolin-3(4H)-yl)benzamido)acetate] | > 500
16 | CNc1cc2[nH]c(=O)n(-c3ccc(C(=O)NC(c4nnn[nH]4)c4ccccc4Cl)cc3)c(=O)c2cc1F (stereo not shown) [Compound 28, N-((2-chlorophenyl)(1H-tetrazol-5-yl)methyl)-4-(6-fluoro-7-(methylamino)-2,4-dioxo-1,2-dihydroquinazolin-3(4H)-yl)benzamide] | > 500
17 | CNc1cc2[nH]c(=O)n(-c3ccc(C(=O)NC(c4ccc(Cl)c(Cl)c4)c4nnn[nH]4)cc3)c(=O)c2cc1F (stereo not shown) [Compound 29, N-((3,4-dichlorophenyl)(1H-tetrazol-5-yl)methyl)-4-(6-fluoro-7-(methylamino)-2,4-dioxo-1,2-dihydroquinazolin-3(4H)-yl)benzamide] | > 500
18 | CNc1cc2[nH]c(=O)n(-c3ccc(C(=O)NC(c4cc(Cl)cc(Cl)c4)c4nnn[nH]4)cc3)c(=O)c2cc1F (stereo not shown) [Compound 30, N-((3,5-dichlorophenyl)(1H-tetrazol-5-yl)methyl)-4-(6-fluoro-7-(methylamino)-2,4-dioxo-1,2-dihydroquinazolin-3(4H)-yl)benzamide] | > 500
19 | CNc1cc2[nH]c(=O)n(-c3ccc(C(=O)NC(c4cccc(OC(F)(F)F)c4)c4nnn[nH]4)cc3)c(=O)c2cc1F (stereo not shown) [Compound 31] | > 500
20 | O=C(NC(C(=O)O)c1ccc(Cl)s1)c1ccc(-n2c(=O)[nH]c3ccccc3c2=O)cc1 (stereo not shown) [Compound 33, 2-(5-chlorothiophen-2-yl)-2-(4-(2,4-dioxo-1,2-dihydroquinazolin-3(4H)-yl)benzamido)acetic acid] | > 500
21 | CNc1cc2[nH]c(=O)n(-c3ccc(C(=O)NC(c4cccc(C(F)(F)F)c4)c4nnn[nH]4)cc3)c(=O)c2cc1F (stereo not shown) [Compound 34] | > 500
22 | CNc1cc2[nH]c(=O)n(-c3ccc(C(=O)NC(CO)c4ccc(Cl)s4)cc3)c(=O)c2cc1F (stereo not shown) [Compound 36] | 50 to 500
23 | O=C(NC(C(=O)O)c1ccc(Cl)s1)c1ccc(-n2c(=O)[nH]c3ccc(I)cc3c2=O)cc1 (stereo not shown) [Compound 37, 2-(5-chlorothiophen-2-yl)-2-(4-(6-iodo-2,4-dioxo-1,2-dihydroquinazolin-3(4H)-yl)benzamido)acetic acid] | 50 to 500
24 | CC(C)Oc1ccc2[nH]c(=O)n(-c3ccc(C(=O)NC(C(=O)O)c4ccc(Cl)s4)cc3)c(=O)c2c1 (stereo not shown) [Compound 38, 2-(5-chlorothiophen-2-yl)-2-(4-(6-isopropoxy-2,4-dioxo-1,2-dihydroquinazolin-3(4H)-yl)benzamido)acetic acid] | > 500
25 | O=C(NC(C(=O)O)c1cccs1)c1ccc(-n2c(=O)[nH]c3ccccc3c2=O)cc1 (stereo not shown) [Compound 39] | > 500
